Format in all cases: in vivo
Assay [1] concerns Plasmopara viticola. The assay can be described thus: Plasmopara test (grapevines)/protective. Particulars: Table B; 50 ppm a.i. The procedure: Solvent: 24.5 parts by weight of acetone
• 24.5 parts by weight of dimethylacetamide Emulsifier: 1 part by weight of alkylaryl polyglycol ether
To produce a suitable preparation of active compound, 1 part by weight of active compound is mixed with the stated amounts of solvent and emulsifier, and the concentrate is diluted with water to the desired concentration. To test for protective activity, young plants are sprayed with the preparation of active compound at the stated rate of application. After the spray coating has dried on, the plants are inoculated with an aqueous spore suspension of Plasmopara viticola and then remain for 1 day in an incubation cabinet at approximately 20° C. and a relative atmospheric humidity of 100%. The plant is subsequently placed for 4 days in a greenhouse at approximately 21° C. and a relative atmospheric humidity of approximately 90%. The plants are then misted and placed for 1 day in an incubation cabinet. The test is evaluated 6 days after the inoculation. 0% means an efficacy which corresponds to that of the control, while an efficacy of 100% means that no disease is observed.

The test system of assay [2] is Sphaerotheca fuliginea. In words: Sphaerotheca test (cucumbers)/protective. Particulars: Podosphaera fuliginea, 168 h, Table C, read-out: Efficacy in % found; for pest or weed control at 50 ppm: 50 ppm a.i.; for pest or weed control at 200 ppm: 200 ppm a.i.; for pest or weed control at 100 ppm: 100 ppm a.i. The essentials:
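Young cucumber plants sprayed protectively with compound in acetone/dimethylacetamide with emulsifier, water-diluted, at the stated rate. After drying, plants inoculated with Sphaerotheca fuliginea spores and kept at ~23° C and ~70% RH. Efficacy scored at 7 days: 0% = untreated control, 100% = no disease.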

Assay [3] has as its system Alternaria solani. In words: Alternaria test (tomatoes)/protective. Particulars: Alternaria solani, 72 h, Table E, read-out: Efficacy in % found; for pest or weed control at 50 ppm: 50 ppm a.i. Put shortly:
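Protective test: young tomato plants were sprayed with compound in an acetone/dimethylacetamide emulsifier formulation diluted with water. After drying, plants were inoculated with Alternaria solani spores and kept at ~20 °C and 100% relative humidity. Scored 3 days post-inoculation as % efficacy, where 0% equals untreated control and 100% means no disease.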

Assay [4] relates to Botrytis cinerea. In words: Botrytis test (beans)/protective. Particulars: Botrytis cinerea, 48 h, Table F, read-out: Efficacy in % found; for pest or weed control at 25 ppm: 25 ppm a.i.; for pest or weed control at 50 ppm: 50 ppm a.i. The essentials:
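Young bean plants were sprayed with compound in acetone/dimethylacetamide plus emulsifier diluted in water; once dry, each leaf got 2 agar pieces bearing Botrytis cinerea. Plants were held dark at 20 °C and 100% relative humidity, and lesion size was scored after 2 days as efficacy, 0% matching untreated control and 100% meaning no disease.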

Where two headings read alike, the source gives them in different places.

On to `Cn1c(=O)c2sc3c(=O)n(C)c(=O)c3sc2c1=O` [(I-1), 2,6-dimethyl-1H,5H-[1,4]dithiino[2,3-c:5,6-c′]dipyrrole-1,3,5,7(2H,6H)-tetrone], for which the “Efficacy in % found” value in assay [1] is 54%. For the same compound, the pest or weed control at 50 ppm in assay [2] (test 1) stood at 0%; in assay [2] (test 2), 38%; in assay [2] (test 3), 20%; in assay [3] (test 1), 45%; in assay [3] (test 2), 50%; in assay [4] (test 1), 45%. In addition, the pest or weed control at 50 ppm in assay [4] (test 2) was determined as 40%; in assay [4] (test 3) it was 58%. The pest or weed control at 200 ppm in assay [2] (test 1) was 30%; in assay [2] (test 2) it was 65%. The pest or weed control at 100 ppm in assay [2] (test 3) stood at 30%; in assay [2] (test 4), 19%. Also, the pest or weed control at 12.5 ppm came to 0% in assay [3] (test 1, 12.5 ppm a.i.) and 0% in assay [4] (test 3, 12.5 ppm a.i.). Moreover, the pest or weed control at 25 ppm in assay [4] (test 1) and in assay [4] (test 2) was 0% throughout.

The values are drawn from patent US9006139B2, “Active compound combinations” (Bayer Intellectual Property GmbH, priority 2009, dated 2015).
